The source made the active and inactive calls. The rule behind the calls is not given here.
Legend:
[1] = tested on: A549; experiment: Induction of apoptosis in human A549 cells assessed as viable cells at 10 uM after 6 hrs by Annexin-V-FITC/Propidium iodide staining based flow cytometric analysis (reference value: 95.48 +/- 2.03%); format: functional; conditions: A549, 6 h, read-out: Activity
[2] = tested on: A549; experiment: Induction of cell cycle arrest in human A549 cells assessed as downregulation of p-Rb(Ser807/811) expression after 48 hrs by Western blot analysis; format: functional, cell-based
[3] = tested on: A549; experiment: Induction of apoptosis in human A549 cells assessed as early apoptotic cells at 20 uM after 48 hrs by Annexin-V/Propidium iodide dual staining based flow cytometric analysis (reference value: 3.53 +/- 0.89%); format: functional
[4] = tested on: A549; experiment: Selectivity index, ratio of IC50 for human BEAS2B cells to IC50 for human A549 cells; format: functional
[5] = tested on: A549; experiment: Induction of apoptosis in human A549 cells assessed as early apoptotic cells at 10 uM after 48 hrs by Annexin-V/Propidium iodide dual staining based flow cytometric analysis (reference value: 3.53 +/- 0.89%); format: functional
[6] = tested on: A549; experiment: Disruption of mitochondrial membrane potential in human A549 cells at 10 uM by JC-1 staining based laser scanning confocal microscopic analysis; format: functional, cell-based
[7] = tested on: A549; experiment: Induction of apoptosis in human A549 cells assessed as downregulation of Bcl-2 expression after 48 hrs by Western blot analysis; format: functional, cell-based
[8] = target: RAF proto-oncogene serine/threonine-protein kinase (Homo sapiens) (UniProt P04049); experiment: Inhibition of c-Raf in human A549 cells assessed as downregulation of phosphorylated ERK1/2 expression after 48 hrs by Western blot analysis; format: cell-based
[9] = tested on: A549; experiment: Cell cycle arrest in human A549 cells assessed as accumulation at S phase at 5 uM by propidium iodide staining based flow cytometric analysis (reference value: 23.41 +/- 2.19%); format: functional
[10] = tested on: A549; experiment: Cell cycle arrest in human A549 cells assessed as accumulation at S phase at 20 uM by propidium iodide staining based flow cytometric analysis (reference value: 23.41 +/- 2.19%); format: functional
[11] = tested on: A549; experiment: Antiproliferative activity against human A549 cells by MTT assay; format: functional, cell-based
[12] = tested on: A549; experiment: Induction of apoptosis in human A549 cells assessed as late apoptotic cells at 20 uM after 48 hrs by Annexin-V/Propidium iodide dual staining based flow cytometric analysis (reference value: 1.44 +/- 0.43%); format: functional
[13] = tested on: HepG2; experiment: Antiproliferative activity against human HepG2 cells by MTT assay; format: functional, cell-based
[14] = tested on: A549; experiment: Induction of apoptosis in human A549 cells assessed as necrotic cells at 10 uM after 48 hrs by Annexin-V/Propidium iodide dual staining based flow cytometric analysis (reference value: 2.57 +/- 0.39%); format: functional
[15] = tested on: A549; experiment: Induction of apoptosis in human A549 cells assessed as increase in ROS production at 20 uM after 12 hrs by DCF staining based luminescence spectrometric analysis relative to control; format: functional
[16] = tested on: A549; experiment: Induction of apoptosis in human A549 cells assessed as necrotic cells at 10 uM after 6 hrs by Annexin-V-FITC/Propidium iodide staining based flow cytometric analysis (reference value: 0.28 +/- 0.09%); format: functional
[17] = tested on: A549; experiment: Induction of apoptosis in human A549 cells assessed as viable cells at 5 uM after 6 hrs by Annexin-V-FITC/Propidium iodide staining based flow cytometric analysis (reference value: 95.48 +/- 2.03%); format: functional; conditions: A549, 6 h, read-out: Activity
[18] = tested on: A549; experiment: Cell cycle arrest in human A549 cells assessed as accumulation at G0/G1 phase at 5 uM by propidium iodide staining based flow cytometric analysis (reference value: 63.82 +/- 2.66%); format: functional
[19] = tested on: A549; experiment: Induction of cell cycle arrest in human A549 cells assessed as downregulation of p-Rb(Ser780) expression after 48 hrs by Western blot analysis; format: functional, cell-based
[20] = tested on: A549; experiment: Disruption of mitochondrial membrane potential in human A549 cells assessed as ratio of green to red fluorescence intensity at 20 uM after 12 hrs by JC-1 staining based flow cytometric analysis; format: functional
[21] = Cytotoxicity against human BEAS2B cells by MTT assay; format: cell-based; conditions: BEAS-2B
[22] = tested on: A549; experiment: Disruption of mitochondrial membrane potential in human A549 cells assessed as ratio of green to red fluorescence intensity at 20 uM after 24 hrs by JC-1 staining based flow cytometric analysis; format: functional
[23] = tested on: A549; experiment: Cell cycle arrest in human A549 cells assessed as accumulation at G2/M phase at 5 uM by propidium iodide staining based flow cytometric analysis (reference value: 12.77 +/- 1.55%); format: functional
[24] = tested on: A549; experiment: Induction of apoptosis in human A549 cells assessed as late apoptotic cells at 10 uM after 48 hrs by Annexin-V/Propidium iodide dual staining based flow cytometric analysis (reference value: 1.44 +/- 0.43%); format: functional
[25] = tested on: A549; experiment: Induction of apoptosis in human A549 cells assessed as early apoptotic cells at 5 uM after 48 hrs by Annexin-V/Propidium iodide dual staining based flow cytometric analysis (reference value: 3.53 +/- 0.89%); format: functional
[26] = tested on: A549; experiment: Cell cycle arrest in human A549 cells assessed as accumulation at G0/G1 phase at 20 uM by propidium iodide staining based flow cytometric analysis (reference value: 63.82 +/- 2.66%); format: functional
[27] = tested on: A549; experiment: Induction of apoptosis in human A549 cells assessed as early apoptotic cells at 5 uM after 6 hrs by Annexin-V-FITC/Propidium iodide staining based flow cytometric analysis (reference value: 3.83 +/- 0.49%); format: functional
[28] = tested on: A549; experiment: Induction of apoptosis in human A549 cells assessed as late apoptotic cells at 10 uM after 6 hrs by Annexin-V-FITC/Propidium iodide staining based flow cytometric analysis (reference value: 0.41 +/- 0.19%); format: functional
[29] = tested on: A549; experiment: Induction of apoptosis in human A549 cells assessed as viable cells at 20 uM after 48 hrs by Annexin-V/Propidium iodide dual staining based flow cytometric analysis (reference value: 92.46 +/- 4.23%); format: functional; conditions: A549, 48 h, read-out: Activity
[30] = target: Serine/threonine-protein kinase B-raf (Homo sapiens) (UniProt P15056); experiment: Inhibition of B-Raf in human A549 cells at 5 to 20 uM after 48 hrs by Western blot analysis; format: cell-based
[31] = target: RAF proto-oncogene serine/threonine-protein kinase (Homo sapiens) (UniProt P04049); experiment: Inhibition of C-Raf in human A549 cells after 48 hrs by Western blot analysis; format: cell-based
[32] = tested on: A549; experiment: Cell cycle arrest in human A549 cells assessed as accumulation at G0/G1 phase at 10 uM by propidium iodide staining based flow cytometric analysis (reference value: 63.82 +/- 2.66%); format: functional
[33] = target: RAF proto-oncogene serine/threonine-protein kinase (Homo sapiens) (UniProt P04049); experiment: Inhibition of c-Raf in human A549 cells assessed as downregulation of ERK1/2 expression after 48 hrs by Western blot analysis; format: cell-based
[34] = tested on: A549; experiment: Induction of apoptosis in human A549 cells assessed as upregulation of Bax expression after 48 hrs by Western blot analysis; format: functional, cell-based
[35] = tested on: A549; experiment: Induction of apoptosis in human A549 cells assessed as viable cells at 5 uM after 48 hrs by Annexin-V-FITC/Propidium iodide staining based flow cytometric analysis (reference value: 92.46 +/- 4.23%); format: functional; conditions: A549, 48 h, read-out: Activity
[36] = tested on: A549; experiment: Cell cycle arrest in human A549 cells assessed as accumulation at G2/M phase at 10 uM by propidium iodide staining based flow cytometric analysis (reference value: 12.77 +/- 1.55%); format: functional

Sequence of RAF proto-oncogene serine/threonine-protein kinase (Homo sapiens) (P04049 whole entry): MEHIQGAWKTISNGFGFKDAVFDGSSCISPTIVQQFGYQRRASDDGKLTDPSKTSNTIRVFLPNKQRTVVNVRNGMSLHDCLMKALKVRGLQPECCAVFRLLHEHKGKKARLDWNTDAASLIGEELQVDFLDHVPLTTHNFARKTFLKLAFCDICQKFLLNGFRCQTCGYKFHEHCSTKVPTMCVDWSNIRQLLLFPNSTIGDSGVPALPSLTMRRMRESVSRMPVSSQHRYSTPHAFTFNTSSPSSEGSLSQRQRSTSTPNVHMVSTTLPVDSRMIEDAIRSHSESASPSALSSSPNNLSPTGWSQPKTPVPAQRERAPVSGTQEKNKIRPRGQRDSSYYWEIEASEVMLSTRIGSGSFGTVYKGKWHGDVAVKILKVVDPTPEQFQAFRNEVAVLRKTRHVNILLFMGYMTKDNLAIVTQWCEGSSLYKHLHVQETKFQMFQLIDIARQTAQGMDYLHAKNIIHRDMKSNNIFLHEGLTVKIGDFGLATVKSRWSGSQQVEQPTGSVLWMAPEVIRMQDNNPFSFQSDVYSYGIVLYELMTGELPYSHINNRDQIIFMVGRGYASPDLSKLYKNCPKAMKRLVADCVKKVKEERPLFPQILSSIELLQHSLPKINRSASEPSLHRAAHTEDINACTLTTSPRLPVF
Sequence of Serine/threonine-protein kinase B-raf (Homo sapiens) (P15056 whole entry): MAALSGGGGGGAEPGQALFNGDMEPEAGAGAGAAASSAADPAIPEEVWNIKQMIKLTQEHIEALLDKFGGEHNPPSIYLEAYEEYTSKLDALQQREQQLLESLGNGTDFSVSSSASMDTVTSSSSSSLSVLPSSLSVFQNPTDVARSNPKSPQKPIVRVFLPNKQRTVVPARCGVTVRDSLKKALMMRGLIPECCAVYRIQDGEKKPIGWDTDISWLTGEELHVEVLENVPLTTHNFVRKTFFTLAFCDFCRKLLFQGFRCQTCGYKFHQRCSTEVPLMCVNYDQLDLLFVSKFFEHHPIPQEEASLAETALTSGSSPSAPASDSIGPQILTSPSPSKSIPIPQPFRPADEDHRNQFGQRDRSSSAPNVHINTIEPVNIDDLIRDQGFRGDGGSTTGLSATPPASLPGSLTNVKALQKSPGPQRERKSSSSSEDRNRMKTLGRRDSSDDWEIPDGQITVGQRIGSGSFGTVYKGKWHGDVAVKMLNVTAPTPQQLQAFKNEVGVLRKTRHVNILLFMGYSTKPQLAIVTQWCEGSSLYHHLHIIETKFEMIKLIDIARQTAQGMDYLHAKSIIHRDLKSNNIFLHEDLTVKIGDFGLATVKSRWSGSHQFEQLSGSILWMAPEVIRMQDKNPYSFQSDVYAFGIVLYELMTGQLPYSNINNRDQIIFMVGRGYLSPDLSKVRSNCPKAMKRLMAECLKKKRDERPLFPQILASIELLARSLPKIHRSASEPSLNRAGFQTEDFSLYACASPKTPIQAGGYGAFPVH

COc1cc2ncnc(NCc3cccc(NC(=O)Nc4ccc(C(C)(C)C)cc4)c3)c2cc1OC
viability at 10 µM [1]: 81.8%
Activity [2]: Dose-dependent effect
Activity [3]: 0.57%
Ratio IC50 [4]: >5
Activity [5]: 1.83%
Activity [6]: Active
Activity [7]: Dose-dependent effect
inhibition [8]: Dose-dependent effect
Activity [9]: 20.28%
Activity [10]: 3.6%
IC50 [11]: 5.21 µM
Activity [12]: 5.65%
IC50 [13]: 6.85 µM
Activity [14]: 22.9%
Activity [15]: 80.9%
Activity [16]: 0.56%
viability at 5 µM [17]: 89.4%
Activity [18]: 66.29%
Activity [19]: Dose-dependent effect
Ratio [20]: 75
IC50 [21]: 26.5 µM
Ratio [22]: 125
Activity [23]: 13.43%
Activity [24]: 7.83%
Activity [25]: 2.54%
Activity [26]: 95.33%
Activity [27]: 4.21%
Activity [28]: 5.4%
viability at 20 µM [29]: 51.6%
inhibition [30]: inactive
inhibition [31]: Dose-dependent effect
Activity [32]: 85.44%
inhibition [33]: Dose-dependent effect
Activity [34]: Dose-dependent effect
viability at 5 µM [35]: 75.4%
Activity [36]: 7.65%
